{"source": "patent US20180368393A1", "about": "“PRE- AND POST-STORAGE STRESS RESPONSE CONDITIONING” (CPSI HOLDINGS LLC, priority 2017, published 2018)", "tested_on": "human smooth muscle cells", "experiment": "Human smooth muscle cell monolayer survival and repopulation following cryopreservation (Calcein-AM assay)", "assay_type": "cell-based", "description": "The device was used to thaw the samples, which were frozen in situ in monolayers in standard 96-well tissue culture plates. Samples were thawed from less than −170° C. to about 4° C. in the 96-well plate format in about 5 mins in a dry clean (“sterile”) environment.\nThe study described in example 3.1 focuses on the collection of cell survival data and the impact of post-thaw conditioning on human smooth muscle cells (SMCs). Specific activities included application of the high throughput monolayer sample cryopreservation protocol and collection of data (survival and cell death) from samples frozen using 6 unique cryopreservation solutions (U5, U10, U20, U5G10, U10G10, DP6) and 6 unique modulators (resveratrol, salubrinal, caspase inhibitors (IV, 8, 9) and NAC). Survival was determined at 24 hours post-thaw to allow for the manifestation of any delayed onset cell death pathways to be executed. Further, cell recovery was included to evaluate the long term potency and repopulation potential of the various samples.\nA series of experiments was conducted to evaluate the performance of several solutions (U5, U10, U20, U5G10, U10G10 and DP6) as well as the impact of pre-freeze (PF) and post-warming (PW) conditioning with the apoptotic inhibitors Caspase 8, Caspase 9 and Caspase IV inhibitors. Cell samples were processed using the monolayer CP protocol and analyzed following 24 hours to 7 days post thaw for survival and recovery. These experiments were conducted to evaluate the impact of molecular modulators (inhibitors) during pre-freeze or post-thaw recovery on cell survival when added to the media 1 hour prior to or 24 hour following cryopreservation. […] To this end, samples were probed with Calcein-AM, incubated for 30 mins in the dark and then imaged using a Zeiss Axiovert 200 fluorescence microscope and Axiovision software. Images were taken at 24 hours to 7 days post-thaw to allow for assessment of solution and post-thaw conditioning agent performance.\nAs in previous experiments, the 24 hour time point was used for initial survival assessment, as this time point allows for the manifestation of molecular based cell stress-induced death. This provides a more accurate measure of survival than 0 or 1 hour post-thaw assessment, as is typically used. The 3 day time point was selected to assess re-population potential of any surviving cells as an indicator of long term potency.\nFor smooth muscle cell pre-freeze (PF) conditioning studies, 1 hour prior to CP addition, culture media was decanted and 100 μL of fresh media supplemented with caspase 8, 9, or IV was added to each respective well. Samples were then incubated at 37° C. for 1 hour, followed by media removal and addition of 100 μL of CP solution to samples followed by cryopreservation as described above. Following preservation, samples were thawed, diluted, and placed into culture. Following 24 hours recovery, cell viability was assessed.\nFor smooth muscle cell post-warming (PW) conditioning studies, following thawing and cryopreservation, CP solution was removed or diluted with culture media supplemented with caspase 8, 9, or IV. FIG. 18 illustrates the impact of apoptotic inhibition post-freeze conditioning on human smooth muscle cell survival 1 day following cryopreservation with and without reduced CPA.\nFor P/P conditioning studies, 1 hour prior to CP addition, culture media was decanted and 100 μL of fresh media supplement with caspase 8, 9, or IV was added to each respective well.", "data": [{"molecule": "CC(=O)N[C@@H](CS)C(=O)O", "note": "[NAC, n-acetyl cysteine]", "values": [{"measurement": "repopulation / recovery at 3 days post-thaw", "setting": "P/P conditioning with oxidative stress modulators", "result": "day 3 recovery reached a monolayer similar to non-treated controls"}, {"measurement": "day 1 cell survival", "setting": "P/P conditioning, vs non-conditioned samples", "result": "slight to no improvement in cell survival"}, {"measurement": "post-thaw cell survival or recovery (overall)", "setting": "PW conditioning in combination with the other solutions", "result": "Broader solution benefit"}, {"measurement": "cell recovery / repopulation, day 3", "setting": "PW conditioning with oxidative stress modulators", "result": "improved cell recovery"}, {"measurement": "day 1 cell survival", "setting": "PW conditioning, vs non-treated matched samples", "result": "improvement in cell survival"}]}]}
